In BindingDB's records for doi:10.1021/jm950817g (Institute, 1996):

Experiment: Activity was evaluated by inhibition of the binding of 1 nM [3H]DPDPE at Opioid receptor delta 1 binding site

| Structure (SMILES) | Ki [µM] |
| --- | --- |
| COCC12Cc3ccc(O)cc3C(C)(CCC1N(C)C)C2 (stereo unspecified) [10-Dimethylamino-9-methoxymethyl-1-methyl-tricyclo[7.3.1.0*2,7*]trideca-2,4,6-trien-4-ol] | 1.4 |
| CC12CCC(N)C(CO)(Cc3ccc(O)cc31)C2 (stereo unspecified) [10-Amino-9-hydroxymethyl-1-methyl-tricyclo[7.3.1.0*2,7*]trideca-2,4,6-trien-4-ol] | > 1000 |
| COC[C@]12Cc3ccc(O)cc3[C@](C)(CCc3nnnn31)C2 [1-methoxymethyl-9-methyl-(1S,9R)-2,3,4,5-tetraazatetracyclo[7.7.1.02,6.010,15]heptadeca-3,5,10(15),11,13-pentaen-12-ol] | > 10 |
| COC[C@]12Cc3ccc(O)cc3[C@](C)(CCCN1C)C2 [(1R,9R)-9-Methoxymethyl-1,10-dimethyl-10-aza-tricyclo[7.4.1.0*2,7*]tetradeca-2(7),3,5-trien-4-ol] | > 5 |
| CN(C)C1CCC2(C)CC1(C)Cc1ccc(O)cc12 (stereo unspecified) [10-Dimethylamino-1,9-dimethyl-tricyclo[7.3.1.0*2,7*]trideca-2,4,6-trien-4-ol] | 10 |
| CN1CC23Cc4ccc(O)cc4C(C)(CCC12)C3 (stereo unspecified) [9,13-dimethyl-13-azatetracyclo[7.5.1.01,12.03,8]pentadeca-3,5,7-trien-6-ol] | > 10 |
| CNCC12Cc3ccc(O)cc3C(C)(CCC1N)C2 (stereo unspecified) [10-Amino-1-methyl-9-methylaminomethyl-tricyclo[7.3.1.0*2,7*]trideca-2,4,6-trien-4-ol] | 0.459 |
| CNC1CCC2(C)CC1(CO)Cc1ccc(O)cc12 (stereo unspecified) [9-Hydroxymethyl-1-methyl-10-methylamino-tricyclo[7.3.1.0*2,7*]trideca-2,4,6-trien-4-ol] | > 1000 |
| CN1CNC2CCC3(C)CC2(Cc2ccc(O)cc23)C1 (stereo unspecified) [3,9-dimethyl-3,5-diazatetracyclo[7.7.1.01,6.010,15]heptadeca-10,12,14-trien-12-ol] | 0.863 |
| COCC12Cc3ccc(O)cc3C(C)(CCC1N)C2 (stereo unspecified) [10-Amino-9-methoxymethyl-1-methyl-tricyclo[7.3.1.0*2,7*]trideca-2,4,6-trien-4-ol] | 0.467 |
| CN(C)C1CCC2(C)CC1(CO)Cc1ccc(O)cc12 (stereo unspecified) [10-Dimethylamino-9-hydroxymethyl-1-methyl-tricyclo[7.3.1.0*2,7*]trideca-2,4,6-trien-4-ol] | > 1000 |
